Patent publication US12233081B2, “Hygromycin a compounds and methods of treating spirochete diseases” (priority 2018, dated 2025)
Values after ≈ are worked out from the molar mass of the structure shown. Where two headings read alike, the source gives them in different places.

Assays:
gut microbiome = settings: mouse, in vivo
B. burgdorferi N40 = assay: C3H mice infected with Borrelia burgdorferi, cell counts in skin tissue; assay type: in vivo; settings: for # of B. burgdorferi cells in 100 mg skin tissue: 5 days of dosing
Method: C3H mice (Charles River Laboratories) are used in classical Lyme disease infection model. Mice were rested for more than 1 day after delivery before infected with 10^5 B. burgdorferi N40 cells by subcutaneous injection. Infection was established for 3 weeks. 100 μl of saline, ceftriaxone or hygromycin A was administered by IP injection. Compounds of the invention can also be tested for efficacy as described herein.
Ceftriaxone (USP grade) was purchased from Sigma-Aldrich. Saline was purchased from Baxter Healthcare. Ceftriaxone powder was dissolved into saline to 31.2 mg/ml solution. Hygromycin A stock solution at 200 mg/ml was diluted into saline to make 50 mg/ml (250 mg/kg), 15 mg/ml (75 mg/kg), 14 mg/ml (70 mg/kg), 10 mg/ml (50 mg/kg) and 5 mg/ml (25 mg/kg) solutions.
In the B. burgdorferi mice infection model, skin is the tissue with highest bacterial burden. After sacrificing mice 2 days after 5 days of dosing, we took 100 mg skin tissue from mouse ear, homogenized the tissue and plated on BSK-II semi-agar plates for cell number counts. No colony appearing on the plates is considered as clearance of the infection.

Treponema pallidum = assay: microbroth dilution MIC; assay type: cell-based

CC(=O)[C@H]1O[C@@H](Oc2ccc(/C=C(\C)C(=O)N[C@@H]3[C@H](O)[C@@H](O)[C@H]4OCO[C@H]4[C@@H]3O)cc2O)[C@@H](O)[C@@H]1O [Hygromycin A]
Camobacteriaceae change in percent relative abundance (gut microbiome; C3H, ip, 50 mg/kg, 5 days): −0.001% | Chitinophagaceae change in percent relative abundance (gut microbiome; C3H, ip, 50 mg/kg, 5 days): 0.000% | Christensenellaceae change in percent relative abundance (gut microbiome; C3H, ip, 50 mg/kg, 5 days): 0.000% | Clostridiaceae change in percent relative abundance (gut microbiome; C3H, ip, 50 mg/kg, 5 days): −0.066% | Clostridiales change in percent relative abundance (gut microbiome; C3H, ip, 50 mg/kg, 5 days): −0.099% | Clostridiales family xi. incertae sedis change in percent relative abundance (gut microbiome; C3H, ip, 50 mg/kg, 5 days): −0.047% | Clostridiales family xiii. incertae sedis change in percent relative abundance (gut microbiome; C3H, ip, 50 mg/kg, 5 days): −0.013% | Coriobacteriaceae change in percent relative abundance (gut microbiome; C3H, ip, 50 mg/kg, 5 days): 0.014% | overall disruption to the gut microbiome (gut microbiome): considerably less severe | Acholeplasmataceae change in percent relative abundance (gut microbiome; ip, 50 mg/kg): 0.003% | Aerococcaceae change in percent relative abundance (gut microbiome; ip, 50 mg/kg): 0.001% | Anaerolineaceae change in percent relative abundance (gut microbiome; ip, 50 mg/kg): 0.000% | Anaeroplasmataceae change in percent relative abundance (gut microbiome; ip, 50 mg/kg): −0.007% | Anaplasmataceae change in percent relative abundance (gut microbiome; ip, 50 mg/kg): 0.000% | Aspergillaceae change in percent relative abundance (gut microbiome; ip, 50 mg/kg): 0.000% | Asteraceae change in percent relative abundance (gut microbiome; ip, 50 mg/kg): 0.001% | Bacillaceae change in percent relative abundance (gut microbiome; ip, 50 mg/kg): −0.021% | Bacillales change in percent relative abundance (gut microbiome; ip, 50 mg/kg): −0.108% | Bacteroidaceae change in percent relative abundance (gut microbiome; ip, 50 mg/kg): −14.397% | Bifidobacteriaceae change in percent relative abundance (gut microbiome; ip, 50 mg/kg): 0.000% | Candidatus saccharibacteria change in percent relative abundance (gut microbiome; ip, 50 mg/kg): −0.022% | Corynebacteriaceae change in percent relative abundance (gut microbiome; ip, 50 mg/kg): 0.000% | Cytophagaceae change in percent relative abundance (gut microbiome; ip, 50 mg/kg): 0.000% | Deferribacteraceae change in percent relative abundance (gut microbiome; ip, 50 mg/kg): 0.368% | Defluviitaleaceae change in percent relative abundance (gut microbiome; ip, 50 mg/kg): −0.001% | Desulfobacteraceae change in percent relative abundance (gut microbiome; ip, 50 mg/kg): 0.000% | Enterobacteriaceae change in percent relative abundance (gut microbiome; ip, 50 mg/kg): 1.250% | Enterococcaceae change in percent relative abundance (gut microbiome; ip, 50 mg/kg): 0.036% | Erysipelotrichaceae change in percent relative abundance (gut microbiome; ip, 50 mg/kg): 5.307% | Eubacteriaceae change in percent relative abundance (gut microbiome; ip, 50 mg/kg): 0.037% | Fabaceae change in percent relative abundance (gut microbiome; ip, 50 mg/kg): 0.000% | Flavobacteriaceae change in percent relative abundance (gut microbiome; ip, 50 mg/kg): 0.000% | Fusobacteriaceae change in percent relative abundance (gut microbiome; ip, 50 mg/kg): 0.000% | Gammaproteobacteria change in percent relative abundance (gut microbiome; ip, 50 mg/kg): −0.020% | Gloeobacteraceae change in percent relative abundance (gut microbiome; ip, 50 mg/kg): −0.020% | Gracilibacteraceae change in percent relative abundance (gut microbiome; ip, 50 mg/kg): −0.112% | Halomonadaceae change in percent relative abundance (gut microbiome; ip, 50 mg/kg): 0.000% | Hylidae change in percent relative abundance (gut microbiome; ip, 50 mg/kg): 0.000% | Kopriimonadaceae change in percent relative abundance (gut microbiome; ip, 50 mg/kg): 0.000% | Lachnospiraceae change in percent relative abundance (gut microbiome; ip, 50 mg/kg): 1.241% | Lactobacillaceae change in percent relative abundance (gut microbiome; ip, 50 mg/kg): 9.667% | Leuconostocaceae change in percent relative abundance (gut microbiome; ip, 50 mg/kg): −0.001% | Methylobacteriaceae change in percent relative abundance (gut microbiome; ip, 50 mg/kg): 0.000% | Microbacteriaceae change in percent relative abundance (gut microbiome; ip, 50 mg/kg): 0.000% | Mucoraceae change in percent relative abundance (gut microbiome; ip, 50 mg/kg): 0.000% | Nostocaceae change in percent relative abundance (gut microbiome; ip, 50 mg/kg): 0.000% | Onagraceae change in percent relative abundance (gut microbiome; ip, 50 mg/kg): 0.000% | Oscillatoriales change in percent relative abundance (gut microbiome; ip, 50 mg/kg): 0.000% | Oscillospiraceae change in percent relative abundance (gut microbiome; ip, 50 mg/kg): −0.009% | Paenibacillaceae change in percent relative abundance (gut microbiome; ip, 50 mg/kg): −0.001% | Pasteurellaceae change in percent relative abundance (gut microbiome; ip, 50 mg/kg): 0.000% | Pelobacteraceae change in percent relative abundance (gut microbiome; ip, 50 mg/kg): 0.000% | Peptococcaceae change in percent relative abundance (gut microbiome; ip, 50 mg/kg): −0.885% | Peptoniphilaceae change in percent relative abundance (gut microbiome; ip, 50 mg/kg): 0.000% | Peptostreptococcaceae change in percent relative abundance (gut microbiome; ip, 50 mg/kg): −0.194% | Physalacriaceae change in percent relative abundance (gut microbiome; ip, 50 mg/kg): 0.000% | Poaceae change in percent relative abundance (gut microbiome; ip, 50 mg/kg): 0.019% | Polyangiaceae change in percent relative abundance (gut microbiome; ip, 50 mg/kg): 0.000% | Porphyromonadaceae change in percent relative abundance (gut microbiome; ip, 50 mg/kg): −0.221% | Prevotellaceae change in percent relative abundance (gut microbiome; ip, 50 mg/kg): −0.319% | Pseudomonadaceae change in percent relative abundance (gut microbiome; ip, 50 mg/kg): 0.000% | Rhizobiaceae change in percent relative abundance (gut microbiome; ip, 50 mg/kg): 0.000% | Rhodobacteraceae change in percent relative abundance (gut microbiome; ip, 50 mg/kg): 0.000% | Rikenellaceae change in percent relative abundance (gut microbiome; ip, 50 mg/kg): −4.710% | Ruminococcaceae change in percent relative abundance (gut microbiome; ip, 50 mg/kg): 1.486% | Sphingomonadaceae change in percent relative abundance (gut microbiome; ip, 50 mg/kg): 0.000% | Spirochaetaceae change in percent relative abundance (gut microbiome; ip, 50 mg/kg): −0.074% | Spiroplasmataceae change in percent relative abundance (gut microbiome; ip, 50 mg/kg): −0.107% | Staphylococcaceae change in percent relative abundance (gut microbiome; ip, 50 mg/kg): 0.004% | Streptococcaceae change in percent relative abundance (gut microbiome; ip, 50 mg/kg): 2.055% | Thermoanaerobacteraceae change in percent relative abundance (gut microbiome; ip, 50 mg/kg): −0.018% | Veillonellaceae change in percent relative abundance (gut microbiome; ip, 50 mg/kg): 0.000% | Verrucomicrobiaceae change in percent relative abundance (gut microbiome; ip, 50 mg/kg): −0.017% | Xanthomonadaceae change in percent relative abundance (gut microbiome; ip, 50 mg/kg): 0.000% | Acholeplasmataceae change in percent relative abundance (gut microbiome; po, 50 mg/kg): 0.005% | Candidatus saccharibacteria change in percent relative abundance (gut microbiome; po, 50 mg/kg): −0.043% | # of B. burgdorferi cells in 100 mg skin tissue (B. burgdorferi N40; 25 mg/kg Oral gavage): <1 | # of B. burgdorferi cells in 100 mg skin tissue (B. burgdorferi N40; 50 mg/kg Oral gavage): <1 | # of B. burgdorferi cells in 100 mg skin tissue (B. burgdorferi N40; 70 mg/kg Oral gavage): <1 | # of B. burgdorferi cells in 100 mg skin tissue (B. burgdorferi N40; 75 mg/kg IP injection): <1 | # of B. burgdorferi cells in 100 mg skin tissue (B. burgdorferi N40; 250 mg/kg Oral gavage): <1 | clearance of the Borrelia burgdorferi infection (B. burgdorferi N40; 5 days of treatment, both IP injection and oral gavage): cleared the Borrelia burgdorferi infection | MIC (Treponema pallidum): 0.03 µg/mL (≈ 0.0587 µM)
